{"source": "patent US20080311589A1", "about": "“METHOD OF HIGH-THROUGHPUT SCREENING OF MOLECULES AND COMPOUNDS FOR THEIR EFFECTS ON BIOLOGICAL AND CHEMICAL PROCESSES” (priority 1999, published 2008)", "tested_on": "Mv1Lu mink lung epithelial cells", "assay": "6144 well BrdU cytoblot", "format": "cell-based", "conditions": "approximately 6000 nanowells", "protocol": "FIG. 4. BrdU incorporation is detected in 6144 well plates with a cytoblot. (a) The actual size of the wells of a 6144 well plate (nanowells; You et al. Chem. Biol. 4:969-975. 1997) is shown. (b) 25× magnification of the blot shown in (a). The indicated number of cells (Mv1Lu) were seeded in […] volumes in duplicate in 1% mink medium with or without 10 μM BrdU or 400 pM TGF-β, as indicated. The cells were cultured for 24 hours at 37° C. with 5% CO2 and then a 6144 well cytoblot was performed (see protocols). (c) Two separate nanowell plates (You et al. Chem. Biol. 4:969-975. 1997) were seeded with 20,000 Mv1Lu cells/mL in 1% mink medium with or without 500 pM TGF-13. After 26 hours at 37° C. with 5% CO2 BrdU was added to a final concentration of 10 μM. The cells were incubated for an additional 18 hours at 37° C. with 5% CO2 and then a 6144 well cytoblot was performed (see protocols).\nThe anti-BrdU cytoblot assay was then tested for its ability to detect the inhibition of BrdU uptake in a plate containing approximately 6000 arrayed “nanowells” (You et al. Chem Biol 4:969-975. 1997. Incorporated herein by reference). […] The following protocol provides experimental detail.\nThe reagents to be tested were prepared in 1536 well plates with one or more test compound per well. […]"}
{"substance": "TGF-β: anti-mitogen transforming growth factor β, multifunctional polypeptide signaling factor", "values": [{"measurement": "BrdU incorporation", "value": "prevented BrdU incorporation"}]}
